# From US20060009512A1, “5-ht 1b/1d receptor agonists for the treatment of headache resulting from administering an endothelin receptor antagonist” (priority 2002, published 2006)
# Entries after “also recorded” stand apart in the source; their conditions may differ.
# Tests used:
# [1] = Clinical study of safety and tolerability of multiple doses of ZD4054 in healthy young volunteers; format: in vivo, man
# Method: (§1) A study was undertaken to assess the safety and tolerability of multiple doses of ZD4054 in healthy young volunteers at dose levels of 100 mg, 50 mg and 25 mg daily.
# (§2) At the 100 mg dose level 16 volunteers participated (12 active and 4 placebo). They received a 100 mg ZD4054 or placebo single dose and one week later commenced daily dosing. Dosing was stopped within 3-5 days of continuous dosing in the majority of ZD4054 treated subjects due to headache. Of the 12 subjects receiving ZD4054, 10 were additionally given zolmitriptan (2.5 mg tablets) at some stage (in addition to paracetamol and in some cases ibuprofen).
# (§3) Note: all subjects received paracetamol (1 g every 4 hours for the first 16 hours post the first dose of ZD4054) on the first day of multiple dosing. Analgesics were given as required.
# [2] = Treatment of ZD4054 induced headache in subjects of the clinical study (zolmitriptan, standard analgesics); format: in vivo, man; conditions: for effect of standard analgesic therapy on ZD4054 induced headaches: subjects with ZD4054 induced headache
# Method: Based on citations by Carducci (Carducci, 2002) a number of “standard analgesic therapies” were tried, including paracetamol, ibuprofen and codeine to treat the ZD4054 induced headaches.
# as §1, §2, §3
# An explanation of CTC grades which stands for Common Toxicity Criteria, can be found in a document from the National Institute of Health, Version 2.0, DCTD, NCI, NIH, DHHS March 1998.
# [3] = cancer patients, doses of 20 mg and above; cited from earlier work
# [4] = man, recommended dose of 125-250 mg bid; cited from earlier work
smiles,measurement,setting,value
"COc1nc(C)cnc1NS(=O)(=O)c1cccnc1-c1ccc(-c2nnco2)cc1 [ZD4054, N-(3-methoxy-5-methylpyrazin-2-yl)-2-(4-[1,3,4-oxadiazol-2-yl]phenyl)pyridine-3-sulphonamide]",time of continuous dosing until dosing was stopped due to headache,"[1]; 100 mg daily, majority of ZD4054 treated subjects",3 to 5 days
same,induction of headache in man,[1]; clinical testing in man,induces headaches in man
CC(C)Cc1ccc(C(C)C(=O)O)cc1 (centres unmarked) [ibuprofen],effect of standard analgesic therapy on ZD4054 induced headaches,[2],several subjects still reported persistent headache
COc1ccc2c3c1O[C@H]1[C@@H](O)C=C[C@H]4[C@@H](C2)N(C)CC[C@@]341 [codeine],effect of standard analgesic therapy on ZD4054 induced headaches,[2],several subjects still reported persistent headache
CN(C)CCc1c[nH]c2ccc(C[C@H]3COC(=O)N3)cc12 [zolmitriptan],headache grade after treatment,"[2]; Subject 7, from CTC grade 2 on second day of multiple dosing, 2.5 mg plus 2.5 mg 50 mins later, 1-1.5 hours later",1 CTC grade
same,headache grade after treatment,"[2]; Subject 10, day 3, from CTC grade 3, 2.5 mg plus 2.5 mg 50 mins later, 2.5 h later",1 CTC grade
same,headache grade after treatment,"[2]; Subject 10, second day, from CTC grade 3, 2.5 mg",2 CTC grade
same,patients noting at least at one stage that their headache was alleviated,"[2]; of 10 subjects given zolmitriptan 2.5 mg tablets, ZD4054 100 mg",Seven
same,effect on intensity/severity of ZD4054 induced headache,"[2]; subjects in which standard analgesic therapy had failed, 2.5-5 mg orally",effective in reducing the intensity of ZD4054 induced headaches in some subjects; also recorded: effective in reducing the severity of headache
CC(=O)Nc1ccc(O)cc1 [paracetamol],improvement of headache,"[2]; Subject 7, CTC grade 2 headache, second day of multiple dosing",little improvement
same,headache grade despite treatment,"[2]; Subject 10, second day, increased from CTC grade 1",3 CTC grade
same,effect of standard analgesic therapy on ZD4054 induced headaches,[2],several subjects still reported persistent headache
CCCCN(CCCC)C(=O)CN1C[C@H](c2ccc3c(c2)OCO3)[C@@H](C(=O)O)[C@@H]1c1ccc(OC)cc1 [Atrasentan],incidence of headache,[3],50-100%
COc1ccccc1Oc1c(NS(=O)(=O)c2ccc(C(C)(C)C)cc2)nc(-c2ncccn2)nc1OCCO [Bosentan],subjects with induced headaches,[4],22%
